Results on seven compounds are retold here after patent publication US6462038B1, “Androgen receptor modulator compounds and methods” (Ligand Pharmaceuticals, Inc., priority 1999, dated 2002).

The structures appear in SMILES notation. Where two headings read alike, the source gives them in different places.

What all share (format): cell-based
Assay [1] concerns the target T1, PR (Homo sapiens, UniProt P06401).
T1 construct: expressed in transfected cells; host or cells: CV-1 cells
T1 sequence (P06401 1-933): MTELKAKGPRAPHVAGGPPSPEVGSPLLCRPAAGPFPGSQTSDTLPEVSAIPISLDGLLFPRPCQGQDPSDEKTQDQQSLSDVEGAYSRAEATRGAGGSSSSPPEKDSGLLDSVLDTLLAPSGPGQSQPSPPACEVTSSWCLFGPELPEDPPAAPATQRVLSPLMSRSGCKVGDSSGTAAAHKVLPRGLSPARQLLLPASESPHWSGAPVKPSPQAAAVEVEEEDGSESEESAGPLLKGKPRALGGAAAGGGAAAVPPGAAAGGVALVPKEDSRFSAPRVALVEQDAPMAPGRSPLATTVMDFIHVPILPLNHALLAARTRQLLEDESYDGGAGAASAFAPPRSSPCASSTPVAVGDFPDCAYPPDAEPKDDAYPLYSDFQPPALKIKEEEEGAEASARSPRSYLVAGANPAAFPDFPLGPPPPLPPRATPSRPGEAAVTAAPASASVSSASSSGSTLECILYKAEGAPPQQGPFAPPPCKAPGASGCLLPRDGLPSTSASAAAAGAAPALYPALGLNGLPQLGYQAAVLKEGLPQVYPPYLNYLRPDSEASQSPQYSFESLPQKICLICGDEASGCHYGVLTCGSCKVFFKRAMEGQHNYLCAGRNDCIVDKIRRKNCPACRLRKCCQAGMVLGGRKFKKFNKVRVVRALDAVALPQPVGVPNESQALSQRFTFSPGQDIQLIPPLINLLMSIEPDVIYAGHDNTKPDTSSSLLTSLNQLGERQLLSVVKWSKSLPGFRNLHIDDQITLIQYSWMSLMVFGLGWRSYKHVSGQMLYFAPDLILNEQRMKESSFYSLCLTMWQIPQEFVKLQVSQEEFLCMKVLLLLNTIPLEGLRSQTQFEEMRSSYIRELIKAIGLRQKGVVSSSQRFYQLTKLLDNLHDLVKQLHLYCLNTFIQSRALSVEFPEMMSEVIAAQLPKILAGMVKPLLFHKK
In words: co-transfection assay, PR agonist. How it is done: (§1) CV-1 cells (African green monkey kidney fibroblasts) were cultured in the presence of Dulbecco's Modified Eagle Medium (DMEM) supplemented with 10% charcoal resin-stripped fetal bovine serum (CH-FBS) then transferred to 96-well microtiter plates one day prior to transfection.
(§2) Three to four replicates were used for each sample.
(§3) After 40 hours, the cells were washed with PBS, lysed with a Triton X-100-based buffer and assayed for LUC and β-Gal activities using a luminometer or spectrophotometer, respectively. For each replicate, the normalized response (NR) was calculated as: […]

In assay [2] the target is T1, PR. In words: co-transfection assay, PR antagonist (in presence of progesterone). As to the method: as §1, §2, §3
Assay [3] concerns the target T2, ER (Homo sapiens, UniProt P03372).
T2 construct: expressed in transfected cells; host or cells: CV-1 cells
In words: co-transfection assay, ER agonist. How it is done:
as §1, §2, §3

Assay [4] has as its target T2, ER. In words: co-transfection assay, ER antagonist. How it is done:
as §1, §2, §3

For assay [5], the target named is T3, GR (Homo sapiens, UniProt P04150).
T3 construct: expressed in transfected cells; host or cells: CV-1 cells
T3 sequence (P04150 1-777): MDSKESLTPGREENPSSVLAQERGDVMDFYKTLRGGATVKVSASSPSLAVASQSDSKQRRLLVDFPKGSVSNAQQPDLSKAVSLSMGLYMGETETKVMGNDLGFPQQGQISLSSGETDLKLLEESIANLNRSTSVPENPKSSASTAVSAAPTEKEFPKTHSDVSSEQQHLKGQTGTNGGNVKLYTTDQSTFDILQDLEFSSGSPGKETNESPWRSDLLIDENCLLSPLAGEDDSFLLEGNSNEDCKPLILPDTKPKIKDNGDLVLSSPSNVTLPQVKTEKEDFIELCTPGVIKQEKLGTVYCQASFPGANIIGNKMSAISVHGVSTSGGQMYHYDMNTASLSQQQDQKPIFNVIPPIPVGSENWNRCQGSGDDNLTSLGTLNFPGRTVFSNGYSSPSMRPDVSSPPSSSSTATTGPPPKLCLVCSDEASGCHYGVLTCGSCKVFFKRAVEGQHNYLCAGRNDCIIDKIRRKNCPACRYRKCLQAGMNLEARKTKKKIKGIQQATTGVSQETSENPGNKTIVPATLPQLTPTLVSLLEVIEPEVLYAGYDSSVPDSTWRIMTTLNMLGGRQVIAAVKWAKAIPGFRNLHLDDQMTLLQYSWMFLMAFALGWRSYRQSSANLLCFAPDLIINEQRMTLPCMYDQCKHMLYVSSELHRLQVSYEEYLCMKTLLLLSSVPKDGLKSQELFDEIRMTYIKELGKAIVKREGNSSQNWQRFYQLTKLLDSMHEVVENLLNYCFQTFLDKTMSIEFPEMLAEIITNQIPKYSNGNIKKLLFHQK
In words: co-transfection assay, GR antagonist. As to the method: as §1, §2, §3

The target in assay [6] is T4, MR (Homo sapiens, UniProt P08235).
T4 construct: expressed in transfected cells; host or cells: CV-1 cells
T4 sequence (P08235 1-984): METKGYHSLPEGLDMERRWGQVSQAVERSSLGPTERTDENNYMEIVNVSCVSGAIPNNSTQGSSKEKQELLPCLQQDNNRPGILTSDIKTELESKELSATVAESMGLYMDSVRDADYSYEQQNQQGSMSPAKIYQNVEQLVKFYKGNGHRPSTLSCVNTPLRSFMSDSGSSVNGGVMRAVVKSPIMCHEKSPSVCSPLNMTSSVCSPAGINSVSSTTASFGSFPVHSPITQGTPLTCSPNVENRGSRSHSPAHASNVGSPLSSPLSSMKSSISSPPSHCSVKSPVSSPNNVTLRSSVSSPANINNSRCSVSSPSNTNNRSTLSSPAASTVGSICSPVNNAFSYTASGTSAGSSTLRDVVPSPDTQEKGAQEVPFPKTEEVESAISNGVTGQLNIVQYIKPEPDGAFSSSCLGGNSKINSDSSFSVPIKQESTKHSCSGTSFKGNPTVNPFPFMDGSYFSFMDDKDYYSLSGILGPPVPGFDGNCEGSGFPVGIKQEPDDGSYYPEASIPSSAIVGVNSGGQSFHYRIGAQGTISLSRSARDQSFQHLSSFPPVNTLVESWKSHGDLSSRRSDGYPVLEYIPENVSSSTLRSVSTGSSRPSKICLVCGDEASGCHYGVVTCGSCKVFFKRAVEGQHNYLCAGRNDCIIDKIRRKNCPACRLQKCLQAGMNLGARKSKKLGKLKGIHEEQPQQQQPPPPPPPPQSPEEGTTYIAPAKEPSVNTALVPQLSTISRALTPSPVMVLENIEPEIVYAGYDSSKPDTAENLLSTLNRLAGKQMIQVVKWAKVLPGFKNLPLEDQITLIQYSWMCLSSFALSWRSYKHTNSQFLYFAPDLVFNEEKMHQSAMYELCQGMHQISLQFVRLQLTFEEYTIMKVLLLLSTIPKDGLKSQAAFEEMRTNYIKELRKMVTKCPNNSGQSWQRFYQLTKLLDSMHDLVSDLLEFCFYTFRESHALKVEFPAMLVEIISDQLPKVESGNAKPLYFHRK
In words: co-transfection assay, MR antagonist. How it is done: as §1, §2, §3

Assay [7] concerns the target T5, hAR (Homo sapiens, UniProt P10275).
T5 construct: expressed in transfected cells; host or cells: CV-1 cells (African green monkey kidney fibroblasts)
T5 sequence (P10275 1-920): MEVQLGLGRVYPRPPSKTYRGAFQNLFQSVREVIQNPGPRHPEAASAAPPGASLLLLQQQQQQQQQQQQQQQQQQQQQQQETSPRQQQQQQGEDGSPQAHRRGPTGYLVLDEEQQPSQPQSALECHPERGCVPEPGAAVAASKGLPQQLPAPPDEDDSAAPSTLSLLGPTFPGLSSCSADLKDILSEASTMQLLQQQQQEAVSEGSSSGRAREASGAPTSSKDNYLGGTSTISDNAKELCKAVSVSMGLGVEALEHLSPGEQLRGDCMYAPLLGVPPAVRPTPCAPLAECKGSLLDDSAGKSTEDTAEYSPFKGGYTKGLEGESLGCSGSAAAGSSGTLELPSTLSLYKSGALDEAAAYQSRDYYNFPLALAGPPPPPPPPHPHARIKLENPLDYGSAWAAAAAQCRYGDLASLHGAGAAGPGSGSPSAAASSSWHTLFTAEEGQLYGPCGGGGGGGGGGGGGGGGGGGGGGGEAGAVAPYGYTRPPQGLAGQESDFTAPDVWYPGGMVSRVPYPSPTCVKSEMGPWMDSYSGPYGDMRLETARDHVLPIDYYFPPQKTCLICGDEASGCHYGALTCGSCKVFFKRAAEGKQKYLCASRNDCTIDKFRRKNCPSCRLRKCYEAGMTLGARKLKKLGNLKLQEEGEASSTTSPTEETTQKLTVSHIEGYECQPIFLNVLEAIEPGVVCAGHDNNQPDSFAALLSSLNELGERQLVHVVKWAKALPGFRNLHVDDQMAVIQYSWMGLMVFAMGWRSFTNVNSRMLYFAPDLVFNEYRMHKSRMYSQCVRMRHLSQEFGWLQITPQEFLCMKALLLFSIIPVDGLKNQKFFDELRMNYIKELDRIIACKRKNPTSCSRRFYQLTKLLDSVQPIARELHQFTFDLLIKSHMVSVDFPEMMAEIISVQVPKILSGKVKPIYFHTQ
In words: co-transfection assay, AR agonist, CV-1 cells. The note with it: for AR Agonist CV-1 Cells Efficacy (%): relative to maximum LUC production by reference agonist.

For assay [8], the target named is T5, hAR. In words: co-transfection assay, AR antagonist (in presence of DHT), CV-1 cells. The following applies: for AR Antagonist CV-1 Cells Efficacy (%): hAR in CV-1 cells, maximal inhibition, DHT at EC50.

T2 sequence (P03372 whole entry): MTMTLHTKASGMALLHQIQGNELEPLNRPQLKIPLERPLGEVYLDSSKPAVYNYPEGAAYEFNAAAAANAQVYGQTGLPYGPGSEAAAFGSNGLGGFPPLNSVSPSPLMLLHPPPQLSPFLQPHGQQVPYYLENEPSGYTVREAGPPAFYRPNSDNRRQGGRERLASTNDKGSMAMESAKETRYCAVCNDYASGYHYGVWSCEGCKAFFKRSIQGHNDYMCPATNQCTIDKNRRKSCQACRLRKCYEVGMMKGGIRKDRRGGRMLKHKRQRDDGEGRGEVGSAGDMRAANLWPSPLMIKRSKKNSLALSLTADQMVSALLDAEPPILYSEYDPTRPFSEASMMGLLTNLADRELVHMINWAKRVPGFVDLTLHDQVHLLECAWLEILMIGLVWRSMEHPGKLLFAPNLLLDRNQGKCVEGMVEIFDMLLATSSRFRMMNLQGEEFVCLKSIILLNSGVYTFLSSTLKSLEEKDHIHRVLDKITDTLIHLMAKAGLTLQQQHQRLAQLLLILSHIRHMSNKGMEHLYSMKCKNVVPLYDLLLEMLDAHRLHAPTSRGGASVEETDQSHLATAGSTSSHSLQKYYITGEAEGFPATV

For `CC1CN(CC(F)(F)F)c2cc3c(C(F)(F)F)cc(=O)[nH]c3cc2O1` (racemic) [Compound 114, (±)-1,2,3,6-Tetrahydro-3-methyl-1-(2,2,2-trifluoroethyl)-9-(trifluoromethyl)-7H-[1,4]oxazino[3,2-g]quinolin-7-one], the EC50 in assay [1] and in assay [3] was > 10 µM in each case. The IC50 in assay [2], in assay [4], in assay [5] and in assay [6] was > 10 µM in each case.

In the case of `CC1COc2cc3[nH]c(=O)cc(C(F)(F)F)c3cc2N1CC(F)(F)F` (racemic) [Compound 123, (±)-1,2,3,6-Tetrahydro-2-methyl-1-(2,2,2-trifluoroethyl)-9-(trifluoromethyl)-7H-[1,4]oxazino[3,2-g]quinolin-7-one], the EC50 was 3.4 nM in assay [7] (AR Agonist CV-1 Cells Potency (nM), hAR in CV-1 cells); 3.4 nM in assay [7] (AR Potency Agon (nM), Table 2); > 10 µM in assay [1]; > 10 µM in assay [3]. In addition, the “AR Agonist CV-1 Cells Efficacy (%)” value in assay [7] (hAR in CV-1 cells) is given as 91%. The IC50 in assay [8] is > 10 µM; in assay [8] (read-out: AR Potency Antag, Table 2), > 10 µM; in assay [2] it was 2.47 µM; in assay [4] it was > 10 µM; in assay [5] it was 3.16 µM. In addition, the “AR Antagonist CV-1 Cells Efficacy (%)” value in assay [8] is “na (na = not active (i.e. efficacy of < 20 and potency of > 10,000 nM for the cotransfection assay, and Ki > 1000 nM for the binding assay))”.

On to `CN1CCOc2cc3[nH]c(=O)cc(C(F)(F)F)c3cc21` [Compound 101, 1,2,3,6-Tetrahydro-1-methyl-9-(trifluoromethyl)-7H-[1,4]oxazino[3,2-g]quinolin-7-one], for which the EC50 in assay [1] and in assay [3] was > 10 µM in each case. Besides, the IC50 in assay [2] was > 10 µM; in assay [4], > 10 µM; in assay [5] it was 6.5 µM; in assay [6], > 10 µM.

For `CCN1CCOc2cc3[nH]c(=O)cc(C(F)(F)F)c3cc21` [Compound 103, 1-Ethyl-1,2,3,6-tetrahydro-9-(trifluoromethyl)-7H-[1,4]oxazino[3,2-g]quinolin-7-one], the EC50 in assay [1] and in assay [3] was > 10 µM throughout. Further, the IC50 in assay [2] was 4.5 µM; in assay [4], > 10 µM; in assay [5], > 10 µM; in assay [6] it was > 10 µM.

For `O=c1cc(C(F)(F)F)c2cc3c(cc2[nH]1)OCCN3Cc1ccccn1` [Compound 122, 1,2,3,6-Tetrahydro-1-(2-pyridylmethyl)-9-(trifluoromethyl)-7H-[1,4]oxazino[3,2-g]quinolin-7-one], the EC50 in assay [7] is > 10000 nM. In addition, the “AR Agonist CV-1 Cells Efficacy (%)” value in assay [7] (hAR in CV-1 cells) was “na (na = not active (i.e. efficacy of < 20 and potency of > 10,000 nM for the cotransfection assay, and Ki > 1000 nM for the binding assay))”. Moreover, in assay [8], the IC50 was 0.632 µM and the “AR Antagonist CV-1 Cells Efficacy (%)” value amounted to 75%.

In the case of `C[C@]1(O)CC[C@H]2[C@@H]3CCC4=CC(=O)CC[C@]4(C)[C@@]3(F)[C@@H](O)C[C@@]21C` [Fluox, fluoxymesterone], the EC50 in assay [1] came to 1.21 µM. Moreover, the figures for the IC50 in assay [2], in assay [5] and in assay [6] were 0.224 µM, 0.263 µM and 0.193 µM, respectively.

Turning to `CC(C)(O)C(=O)Nc1ccc([N+](=O)[O-])c(C(F)(F)F)c1` [Flut, 2-hydroxyflutamide, reference compound], in assay [3] (Table 2, read-out: ER Potency Agon), the EC50 is > 10 µM. Also, in assay [4] (Table 2, read-out: ER Potency Antag), the IC50 is > 10 µM.
